The text below walks through data of ChEMBL document CHEMBL5465560, “Selectivity Literature for EUbOPEN Chemogenomic Library” (2024).

Experiment [1] has as its target Glycogen synthase kinase-3 beta (Homo sapiens, UniProt P49841). Description: Selectivity interaction (Upstate Kinase Profiler service (Millipore)) EUB0000056c GSK3B. Particulars: at 1 µM.
For experiment [2], the target named is T1, Serine/threonine-protein kinase Nek11 (Homo sapiens) (UniProt Q8NG66).
T1 sequence (whole entry): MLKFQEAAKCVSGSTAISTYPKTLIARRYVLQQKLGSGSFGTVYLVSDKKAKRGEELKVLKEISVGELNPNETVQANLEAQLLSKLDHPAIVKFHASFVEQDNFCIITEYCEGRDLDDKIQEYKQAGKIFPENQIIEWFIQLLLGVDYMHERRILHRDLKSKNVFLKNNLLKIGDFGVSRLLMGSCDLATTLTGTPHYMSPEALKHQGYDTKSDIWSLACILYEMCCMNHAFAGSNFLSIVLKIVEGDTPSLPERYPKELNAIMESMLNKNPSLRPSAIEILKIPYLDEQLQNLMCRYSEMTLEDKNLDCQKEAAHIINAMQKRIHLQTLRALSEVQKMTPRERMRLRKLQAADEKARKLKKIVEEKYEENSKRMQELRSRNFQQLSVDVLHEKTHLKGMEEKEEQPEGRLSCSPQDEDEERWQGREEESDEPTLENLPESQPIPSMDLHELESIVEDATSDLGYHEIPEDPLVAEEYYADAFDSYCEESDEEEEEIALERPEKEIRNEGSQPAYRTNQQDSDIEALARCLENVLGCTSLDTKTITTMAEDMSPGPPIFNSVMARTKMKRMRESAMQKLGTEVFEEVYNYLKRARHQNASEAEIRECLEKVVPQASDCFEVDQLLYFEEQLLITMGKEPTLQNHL
Description: Selectivity interaction (Ambit KINOMEscan and KiNATiv profiling in Jurkat cells) EUB0000090b NEK11. The following applies: at 1 µM. It is filed as cell-based.

For experiment [3], the target named is T2, Serine/threonine-protein kinase TAO3 (Homo sapiens) (UniProt Q9H2K8).
T2 sequence (whole entry): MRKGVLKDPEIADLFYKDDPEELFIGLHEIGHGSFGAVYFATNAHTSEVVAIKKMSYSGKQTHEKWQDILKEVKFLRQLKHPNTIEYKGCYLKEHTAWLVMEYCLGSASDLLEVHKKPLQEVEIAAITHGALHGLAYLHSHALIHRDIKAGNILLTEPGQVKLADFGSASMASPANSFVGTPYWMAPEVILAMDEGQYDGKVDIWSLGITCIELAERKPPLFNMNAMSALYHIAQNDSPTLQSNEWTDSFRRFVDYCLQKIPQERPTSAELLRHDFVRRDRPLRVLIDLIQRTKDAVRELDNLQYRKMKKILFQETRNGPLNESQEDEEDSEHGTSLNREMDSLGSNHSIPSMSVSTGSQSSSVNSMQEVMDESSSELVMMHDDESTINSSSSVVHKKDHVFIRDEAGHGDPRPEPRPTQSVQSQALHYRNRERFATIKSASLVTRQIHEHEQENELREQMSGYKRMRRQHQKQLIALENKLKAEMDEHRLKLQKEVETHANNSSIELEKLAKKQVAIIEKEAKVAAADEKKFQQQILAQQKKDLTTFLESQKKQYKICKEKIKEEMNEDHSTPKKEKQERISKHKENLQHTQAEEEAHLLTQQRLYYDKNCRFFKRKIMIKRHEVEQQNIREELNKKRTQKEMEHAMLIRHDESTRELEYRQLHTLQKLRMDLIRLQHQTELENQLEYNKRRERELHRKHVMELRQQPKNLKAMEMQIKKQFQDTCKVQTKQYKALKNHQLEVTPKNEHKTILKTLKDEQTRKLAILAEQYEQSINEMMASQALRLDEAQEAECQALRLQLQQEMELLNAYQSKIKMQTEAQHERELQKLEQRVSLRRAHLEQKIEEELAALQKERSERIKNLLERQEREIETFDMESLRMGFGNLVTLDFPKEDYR
The experiment is described as follows: Selectivity interaction (Ambit KINOMEscan and KiNATiv profiling in Jurkat cells) EUB0000090b TAOK3. It is filed as cell-based. Particulars: at 1 µM.

Experiment [4] addresses T3, MAP kinase-activated protein kinase 5 (Homo sapiens) (UniProt Q8IW41).
T3 sequence (whole entry): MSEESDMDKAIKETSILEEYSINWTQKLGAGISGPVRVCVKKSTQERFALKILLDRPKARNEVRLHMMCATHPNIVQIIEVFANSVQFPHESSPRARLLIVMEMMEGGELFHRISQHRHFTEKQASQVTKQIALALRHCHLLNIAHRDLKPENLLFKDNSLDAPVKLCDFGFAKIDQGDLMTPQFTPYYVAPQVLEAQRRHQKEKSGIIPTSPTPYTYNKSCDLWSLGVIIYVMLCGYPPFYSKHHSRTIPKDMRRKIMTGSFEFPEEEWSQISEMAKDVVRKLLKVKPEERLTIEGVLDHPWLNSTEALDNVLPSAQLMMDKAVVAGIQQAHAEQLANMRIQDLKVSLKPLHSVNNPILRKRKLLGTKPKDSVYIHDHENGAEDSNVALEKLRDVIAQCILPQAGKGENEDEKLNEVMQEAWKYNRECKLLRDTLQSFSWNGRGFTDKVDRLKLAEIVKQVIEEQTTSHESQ
The experiment is described as follows: Selectivity interaction (KinomeScan (DiscoverX)) EUB0000655a MAPKAPK5. Particulars: at 10 µM.

Experiment [5] deals with ALK tyrosine kinase receptor (Homo sapiens, UniProt Q9UM73). The experiment is described as follows: Selectivity interaction (KinomeScan (DiscoverX)) EUB0000045b ALK.
Chain of ALK tyrosine kinase receptor (Q9UM73 19-1620 limits assumed): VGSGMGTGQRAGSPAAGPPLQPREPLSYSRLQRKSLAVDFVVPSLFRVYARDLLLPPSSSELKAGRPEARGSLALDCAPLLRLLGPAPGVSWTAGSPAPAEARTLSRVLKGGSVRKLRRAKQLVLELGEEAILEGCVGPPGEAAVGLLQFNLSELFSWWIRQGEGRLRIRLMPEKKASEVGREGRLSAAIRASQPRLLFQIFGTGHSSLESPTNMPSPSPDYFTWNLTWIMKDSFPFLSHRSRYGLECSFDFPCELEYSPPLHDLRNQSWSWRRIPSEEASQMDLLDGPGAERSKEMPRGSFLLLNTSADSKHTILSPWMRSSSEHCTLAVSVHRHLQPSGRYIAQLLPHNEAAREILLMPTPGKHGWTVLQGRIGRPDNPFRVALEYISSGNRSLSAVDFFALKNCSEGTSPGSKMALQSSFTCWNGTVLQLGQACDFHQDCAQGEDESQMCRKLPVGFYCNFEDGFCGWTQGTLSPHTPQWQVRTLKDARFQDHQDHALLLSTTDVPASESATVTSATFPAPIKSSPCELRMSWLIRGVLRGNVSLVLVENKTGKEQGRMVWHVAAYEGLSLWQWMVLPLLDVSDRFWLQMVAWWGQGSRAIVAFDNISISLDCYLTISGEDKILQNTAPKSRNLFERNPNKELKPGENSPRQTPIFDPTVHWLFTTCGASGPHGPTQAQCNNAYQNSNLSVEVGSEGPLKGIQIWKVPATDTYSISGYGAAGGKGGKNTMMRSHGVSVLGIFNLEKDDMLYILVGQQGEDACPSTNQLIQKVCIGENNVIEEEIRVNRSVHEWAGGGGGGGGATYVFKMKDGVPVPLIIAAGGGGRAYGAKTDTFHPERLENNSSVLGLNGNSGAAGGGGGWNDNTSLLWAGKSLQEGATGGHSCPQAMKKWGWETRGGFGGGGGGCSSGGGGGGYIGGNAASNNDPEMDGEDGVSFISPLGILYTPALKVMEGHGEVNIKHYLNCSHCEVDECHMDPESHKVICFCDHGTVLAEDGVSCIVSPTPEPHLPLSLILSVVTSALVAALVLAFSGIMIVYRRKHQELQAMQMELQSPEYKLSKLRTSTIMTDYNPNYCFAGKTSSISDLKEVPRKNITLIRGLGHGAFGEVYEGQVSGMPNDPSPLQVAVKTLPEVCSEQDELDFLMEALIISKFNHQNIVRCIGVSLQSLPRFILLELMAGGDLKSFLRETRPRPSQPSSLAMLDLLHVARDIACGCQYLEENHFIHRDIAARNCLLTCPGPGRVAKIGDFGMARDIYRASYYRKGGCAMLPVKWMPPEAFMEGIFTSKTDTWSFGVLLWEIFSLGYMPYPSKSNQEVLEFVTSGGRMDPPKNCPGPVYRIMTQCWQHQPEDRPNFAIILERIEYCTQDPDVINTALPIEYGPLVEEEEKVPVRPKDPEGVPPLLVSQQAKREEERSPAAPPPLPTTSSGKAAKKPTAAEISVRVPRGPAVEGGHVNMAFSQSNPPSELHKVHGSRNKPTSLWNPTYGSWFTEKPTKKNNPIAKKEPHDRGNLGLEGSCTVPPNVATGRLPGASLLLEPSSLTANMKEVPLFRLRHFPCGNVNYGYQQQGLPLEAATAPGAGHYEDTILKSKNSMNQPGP
For experiment [6], the target named is T4, Dual specificity tyrosine-phosphorylation-regulated kinase 3 (Homo sapiens) (UniProt O43781).
T4 sequence (whole entry): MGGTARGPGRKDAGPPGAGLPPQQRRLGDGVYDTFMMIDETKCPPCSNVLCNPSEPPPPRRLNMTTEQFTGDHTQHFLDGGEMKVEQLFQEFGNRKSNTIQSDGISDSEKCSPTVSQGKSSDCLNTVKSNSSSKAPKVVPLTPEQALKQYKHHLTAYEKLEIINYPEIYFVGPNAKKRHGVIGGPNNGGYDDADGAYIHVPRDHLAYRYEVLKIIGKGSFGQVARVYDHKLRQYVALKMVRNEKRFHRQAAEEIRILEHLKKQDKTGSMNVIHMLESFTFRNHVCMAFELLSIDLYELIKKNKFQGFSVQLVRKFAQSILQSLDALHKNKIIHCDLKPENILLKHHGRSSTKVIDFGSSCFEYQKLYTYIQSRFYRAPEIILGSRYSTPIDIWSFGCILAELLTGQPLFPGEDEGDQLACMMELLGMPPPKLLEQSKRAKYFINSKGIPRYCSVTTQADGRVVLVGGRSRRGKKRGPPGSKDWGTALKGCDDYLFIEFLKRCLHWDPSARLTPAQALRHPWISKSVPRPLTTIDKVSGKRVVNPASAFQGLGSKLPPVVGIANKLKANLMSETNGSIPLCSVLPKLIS
Description: Selectivity interaction (Kinase panel (Invitrogen)) EUB0000639a DYRK3. Particulars: at 200 nM.

The target of experiment [7] is Mitogen-activated protein kinase 1 (Homo sapiens, UniProt P28482). The experiment is described as follows: Selectivity interaction (ActivX KiNativ screen (kinase selectivity in THP-1 cell lysates)) EUB0000639a MAPK1. The experiment is classed as subcellular. Particulars: lysate, at 5 µM.
Chain of Mitogen-activated protein kinase 1 (P28482 whole entry): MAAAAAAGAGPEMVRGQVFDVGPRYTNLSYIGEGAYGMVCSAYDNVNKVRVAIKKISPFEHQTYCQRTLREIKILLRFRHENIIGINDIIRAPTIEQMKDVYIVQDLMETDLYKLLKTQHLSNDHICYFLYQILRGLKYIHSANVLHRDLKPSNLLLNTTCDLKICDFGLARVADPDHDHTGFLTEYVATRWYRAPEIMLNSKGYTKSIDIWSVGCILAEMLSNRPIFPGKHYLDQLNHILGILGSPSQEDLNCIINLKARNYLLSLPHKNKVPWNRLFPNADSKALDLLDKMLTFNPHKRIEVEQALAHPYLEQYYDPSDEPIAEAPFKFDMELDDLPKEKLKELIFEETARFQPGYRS

Chain of Glycogen synthase kinase-3 beta (P49841 whole entry, looked up): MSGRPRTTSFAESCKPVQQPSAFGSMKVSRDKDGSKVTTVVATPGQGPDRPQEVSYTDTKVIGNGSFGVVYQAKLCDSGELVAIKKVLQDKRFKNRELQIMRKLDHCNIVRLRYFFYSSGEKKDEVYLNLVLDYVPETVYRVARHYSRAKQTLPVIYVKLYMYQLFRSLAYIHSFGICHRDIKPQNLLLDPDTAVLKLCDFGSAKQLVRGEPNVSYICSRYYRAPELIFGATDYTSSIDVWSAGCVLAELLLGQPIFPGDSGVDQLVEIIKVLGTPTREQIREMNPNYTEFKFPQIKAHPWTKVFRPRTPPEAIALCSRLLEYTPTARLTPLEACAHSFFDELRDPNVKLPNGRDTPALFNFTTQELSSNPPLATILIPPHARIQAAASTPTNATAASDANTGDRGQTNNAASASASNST

For the molecule `Cc1ccc(-c2ccc3c(ccc4sc5c(c43)NC[C@@H](C)NC5=O)n2)cn1`, the % of inhibition in experiment [1] was 11%.
For the molecule `CN(C)C/C=C/C(=O)Nc1ccc(C(=O)N2CCCC(Nc3ncc(Cl)c(-c4c[nH]c5ccccc45)n3)C2)cc1` (stereo not drawn), the % of control in experiment [2] came out at 90%; in experiment [3] it was 97%.
For `CN(C)CCOc1ccc(-c2nc(-c3ccncc3)c(-c3ccc4c(c3)CC/C4=N\O)[nH]2)cc1`, the % of control in experiment [4] is 100%.
As for `C=CC(=O)Nc1cc(-n2c(=O)ccc3cnc4ccc(-c5ccc(NS(C)(=O)=O)cc5)cc4c32)ccc1C`, the % of control in experiment [5] (at 1 µM) and in experiment [5] (at 10 µM) was 100% throughout.
For the molecule `CC[C@@H]1[C@H](F)C(=O)N[C@@H]1COc1nccc2cc(C(N)=O)c(OC)cc12` [ZIMLOVISERTIB], the % of inhibition was 6.43% in experiment [6] and 25.2% in experiment [7].
